Legend:
Type in all cases: cell-based, human
[1] = system: TRAF2 overexpression in U2OS cells; test: Cell Painting morphological profile matching to TRAF2 overexpression; details: Pearson correlation of Cell Painting signatures, U2OS cells
From the text: (§1) Of these, analysis of the 220 constructs that were most closely representative of the annotated full-length transcripts was prioritized. […] Not all genes are likely to impact cellular morphology given the limitation of the experiment; using a single cell line at a single time point under a single set of conditions and stained with six fluorescent labels.
(§2) This standardization was done plate wise, based on the mean and standard deviation of the controls at profile level for the compound dataset. […] The signatures were then obtained by averaging the replicate profiles feature-wise. Pearson correlation was used on the aligned signatures of a gene and compound to score their connection.

U2OS cells = test: Cell count in U2OS Cell Painting images; details: U2OS Cell Painting
From the text: as §1, §2

[2] = system: YAP1 overexpression in U2OS cells; test: Cell Painting morphological profile matching to YAP1/TAZ overexpression signature; details: Pearson correlation of Cell Painting signatures, U2OS cells
From the text: as §1
FIG. 2 provides an example characterization of matching the morphological signature of a gene query to the signature(s) of compounds in a library. Connections which show both positive and negative large correlations are considered as matches.
as §2

Row | Structure (SMILES) | Corr. to TRAF2 [1] | Avg. Cell Count z-score (U2OS cells) | Corr. to YAP1 cluster [2]
1 | N#Cc1nn(-c2c(Cl)cc(C(F)(F)F)cc2Cl)c(N)c1[S+]([O-])C(F)(F)F (stereo not drawn) [BRD-A50675702, 5-amino-1-[2,6-dichloro-4-(trifluoromethyl)phenyl]-4-(trifluoromethane)sulfinyl-1H-pyrazole-3-carbonitrile] | −0.4752 | −0.1188 | 0.5102
2 | Cc1ccc(S(=O)(=O)NC(=O)NN2CC3CCCC3C2)cc1 (stereo not drawn) [BRD-A61154809, 1-(3,3a,4,5,6,6a-hexahydro-1H-cyclopenta[c]pyrrol-2-yl)-3-(4-methylphenyl)sulfonylurea] | −0.3313 | 0.8203 | 0.4401
3 | CNC[C@@H]1Oc2c(NS(=O)(=O)c3ccc(F)cc3)cccc2C(=O)N([C@H](C)CO)C[C@H]1C [BRD-K00135177, 4-fluoro-N-[(2R,3R)-5-[(2R)-1-hydroxypropan-2-yl]-3-methyl-2-(methylaminomethyl)-6-oxo-3,4-dihydro-2H-1,5-benzoxazocin-10-yl]benzenesulfonamide] | −0.3649 | 0.4009 | 0.5004
4 | CN1c2cc3c(cc2N=C(c2ccc(C(=O)O)cc2)c2ccccc21)C(C)(C)CCC3(C)C [BRD-K06593056, 4-(5,7,7,10,10-pentamethyl-8,9-dihydronaphtho[2,3-b][1,4]benzodiazepin-13-yl)benzoic acid] | −0.4512 | −0.7909 | 0.4357
5 | O=C(C[C@H]1CC[C@H](NC(=O)CCN2CCCCC2)[C@@H](CO)O1)Nc1nccs1 [BRD-K11266478, N-[(2S,3S,6R)-2-(hydroxymethyl)-6-[2-oxo-2-(1,3-thiazol-2-ylamino)ethyl]oxan-3-yl]-3-piperidin-1-ylpropanamide] | −0.4398 | 0.4851 | 0.4988
6 | Clc1nc(NCc2ccccc2)c2ccccc2n1 [BRD-K11758216, N-benzyl-2-chloroquinazolin-4-amine] | −0.4406 | −1.202 | 0.5078
7 | C[C@H](CO)N1C[C@H](C)[C@H](CN(C)C)Oc2cc(C#Cc3ccccn3)ccc2S1(=O)=O [BRD-K13719685, (4S,5R)-5-((dimethylamino)methyl)-2-((R)-1-hydroxypropan-2-yl)-4-methyl-8-(pyridin-2-ylethynyl)-2,3,4,5-tetrahydrobenzo[b][1,4,5]oxathiazocine 1,1-dioxide] | 0.3591 | 2.104 | −0.4426
8 | COc1ccc(Cc2nccc3cc(OC)c(OC)cc23)cc1OC [BRD-K15567136, 1-[(3,4-dimethoxyphenyl)methyl]-6,7-dimethoxyisoquinoline] | −0.4936 | −0.6568 | 0.4464
9 | C[C@H]1CN([C@@H](C)CO)C(=O)CCCn2nncc2CO[C@H]1CN(C)C(=O)Nc1cccc(Oc2ccccn2)c1 [BRD-K19969618, 1-[[(8S,9R)-6-[(2S)-1-hydroxypropan-2-yl]-8-methyl-5-oxo-10-oxa-1,6,14,15-tetrazabicyclo[10.3.0]pentadeca-12,14-dien-9-yl]methyl]-1-methyl-3-(3-pyridin-2-yloxyphenyl)urea] | −0.4667 | 0.7797 | 0.5483
10 | CCCC(=O)Nc1ccc2c(c1)C(=O)N(C)C[C@H](OC)[C@H](C)CN(Cc1ccccc1)[C@@H](C)CO2 [BRD-K22754756, N-[(4S,7R,8R)-8-methoxy-4,7,10-trimethyl-11-oxo-5-(phenylmethyl)-2-oxa-5,10-diazabicyclo[10.4.0]hexadeca-1(12),13,15-trien-14-yl]butanamide] | −0.297 | −1.409 | 0.4966
11 | CO[C@H]1CN(C)C(=O)c2cc(NC(=O)C3CCCCC3)ccc2OC[C@@H](C)N(Cc2nccs2)C[C@@H]1C [BRD-K22874335, N-[(4R,7S,8R)-8-methoxy-4,7,10-trimethyl-11-oxo-5-(1,3-thiazol-2-ylmethyl)-2-oxa-5,10-diazabicyclo[10.4.0]hexadeca-1(12),13,15-trien-14-yl]cyclohexanecarboxamide] | −0.362 | −1.704 | 0.4904
12 | O=C(C[C@@H]1C[C@H]2c3cc(NC(=O)C4CCC4)ccc3O[C@H]2[C@H](CO)O1)NCc1ccccn1 [BRD-K28043081, N-[(1S,3S,4aS,9aR)-1-(hydroxymethyl)-3-[2-oxo-2-(pyridin-2-ylmethylamino)ethyl]-3,4,4a,9a-tetrahydro-1H-pyrano[3,4-b][1]benzofuran-6-yl]cyclobutanecarboxamide] | −0.406 | −0.5533 | 0.527
13 | O=C(NCC1CC1)[C@@H]1N[C@@H]2c3ccc(C4=CCCCC4)c(=O)n3C[C@@H]2[C@H]1CO [BRD-K37451830, (2R,3R,3aS,9bS)-7-(1-cyclohexenyl)-N-(cyclopropylmethyl)-3-(hydroxymethyl)-6-oxo-1,2,3,3a,4,9b-hexahydropyrrolo[2,3-a]indolizine-2-carboxamide] | −0.4167 | −0.0043 | 0.4802
14 | CCCNC(=O)N1[C@@H]2c3ccc(-c4ccccc4OC)c(=O)n3C[C@H]1[C@H](CO)[C@H]2C(=O)NCC [BRD-K39839146, (1S,9R,10R,11R)-11-N-ethyl-10-(hydroxymethyl)-5-(2-methoxyphenyl)-6-oxo-12-N-propyl-7,12-diazatricyclo[7.2.1.02,7]dodeca-2,4-diene-11,12-dicarboxamide] | −0.4284 | 0.2185 | 0.4835
15 | O=C(C[C@H]1C=C[C@@H](NC(=O)Nc2cc(F)ccc2F)[C@H](CO)O1)NCCCN1CCOCC1 [BRD-K40143134, 2-[(2R,3R,6S)-3-[[(2,5-difluoroanilino)-oxomethyl]amino]-2-(hydroxymethyl)-3,6-dihydro-2H-pyran-6-yl]-N-[3-(4-morpholinyl)propyl]acetamide] | −0.3428 | −0.1148 | 0.5009
16 | O=C(C[C@H]1CC[C@@H]2[C@H](COC[C@@H](O)CN2Cc2ccc3c(c2)OCO3)O1)N1CCCCC1 [BRD-K41723088, 2-[(3S,6aR,8R,10aR)-1-(1,3-benzodioxol-5-ylmethyl)-3-hydroxy-3,4,6,6a,8,9,10,10a-octahydro-2H-pyrano[2,3-c][1,5]oxazocin-8-yl]-1-piperidin-1-ylethanone] | −0.4389 | −0.07095 | 0.4916
17 | O=c1c(-c2ccc(O)cc2)coc2cc(O)ccc12 [BRD-K42095107, 7-hydroxy-3-(4-hydroxyphenyl)chromen-4-one] | −0.372 | −0.8813 | 0.4583
18 | CO[C@@H]1CN(C)C(=O)c2ccc(NC(=O)c3ccccc3F)cc2OC[C@H](C)N(CC2CC2)C[C@@H]1C [BRD-K42367391, N-[(5S,6S,9S)-8-(cyclopropylmethyl)-5-methoxy-3,6,9-trimethyl-2-oxo-11-oxa-3,8-diazabicyclo[10.4.0]hexadeca-1(12),13,15-trien-14-yl]-2-fluorobenzamide] | −0.2728 | −0.9374 | 0.4887
19 | O=C(Nc1ccncc1)Nc1c(Cl)cc(Cl)cc1Cl [BRD-K46678324, 1-pyridin-4-yl-3-(2,4,6-trichlorophenyl)urea] | −0.3397 | −0.7252 | 0.4284
20 | O=C(N[C@H]1CC[C@@H](CCNS(=O)(=O)c2ccc(F)cc2)O[C@H]1CO)C1CCOCC1 [BRD-K48052543, N-[(2R,3S,6S)-6-[2-[(4-fluorophenyl)sulfonylamino]ethyl]-2-(hydroxymethyl)oxan-3-yl]oxane-4-carboxamide] | −0.4132 | 0.09801 | 0.5099
21 | O=C(Nc1ccc2c(c1)[C@H]1C[C@@H](CC(=O)N3CCCCC3)O[C@@H](CO)[C@H]1O2)C1CCOCC1 [BRD-K62768599, N-[(1S,3S,4aR,9aS)-1-(hydroxymethyl)-3-[2-oxo-2-(1-piperidinyl)ethyl]-3,4,4a,9a-tetrahydro-1H-pyrano[3,4-b]benzofuran-6-yl]-4-oxanecarboxamide] | −0.5272 | −0.7392 | 0.4883
22 | COC(=O)C[C@H]1C[C@H]2c3cc(NS(=O)(=O)c4cccc(OC)c4)ccc3O[C@H]2[C@@H](CO)O1 [BRD-K68530167, 2-[(1R,3R,4aS,9aR)-1-(hydroxymethyl)-6-[(3-methoxyphenyl)sulfonylamino]-3,4,4a,9a-tetrahydro-1H-pyrano[3,4-b]benzofuran-3-yl]acetic acid methyl ester] | −0.4619 | −0.1411 | 0.494
23 | COc1cccc(S(=O)(=O)N2C[C@H](O)COC[C@@H]3O[C@H](CC(=O)N4CCN(c5ccccc5)CC4)CC[C@H]32)c1 [BRD-K70003473, 2-[(3S,6aR,8S,10aR)-3-hydroxy-1-(3-methoxyphenyl)sulfonyl-3,4,6,6a,8,9,10,10a-octahydro-2H-pyrano[2,3-c][1,5]oxazocin-8-yl]-1-(4-phenyl-1-piperazinyl)ethanone] | 0.3099 | 0.5728 | −0.4195

Source: patent publication US20230255970A1, “COMPOSITIONS AND METHODS FOR TREATING PROLIFERATIVE DISEASES” (The Broad Institute, Inc., priority 2020, published 2023)
